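Cultured in 96-well plates, cells were exposed to test compound for 48 hours across five concentrations. GI50 is the concentration that inhibits growth by half.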 The source made the active and inactive calls. Rule as the data show it: active = GI50 up to about 1.1 µM and inactive = higher.
Assays:
Test in all cases: NCI anticancer screen, dose series, 48 h
HCT-15 = tested on: HCT-15
SR = tested on: SR
NCI-H522 = tested on: NCI-H522
RXF 393 = tested on: RXF 393
SK-MEL-28 = tested on: SK-MEL-28
OVCAR-5 = tested on: OVCAR-5
NCI-H23 = tested on: NCI-H23
NCI-H226 = tested on: NCI-H226
SK-MEL-5 = tested on: SK-MEL-5
M14 = tested on: M14
UO-31 = tested on: UO-31
UACC-257 = tested on: UACC-257
UACC-62 = tested on: UACC-62
CCRF-CEM = tested on: CCRF-CEM
SK-OV-3 = tested on: SK-OV-3
A498 = tested on: A498

Row | SMILES | GI50 (HCT-15) | GI50 (SR) | GI50 (NCI-H522) | GI50 (RXF 393) | GI50 (SK-MEL-28) | GI50 (OVCAR-5) | GI50 (NCI-H23) | GI50 (NCI-H226) | GI50 (SK-MEL-5) | GI50 (M14) | GI50 (UO-31) | GI50 (UACC-257) | GI50 (UACC-62) | GI50 (CCRF-CEM) | GI50 (SK-OV-3) | GI50 (A498)
1 | COC(=O)C(=O)C(C(=O)C(=O)Nc1cc(C)ccc1C)c1nc2ccc(C(=O)c3ccccc3)cc2nc1O (centres undefined) | > 100 µM | 68.5 µM (inactive) | 36.3 µM (inactive) | 46.3 µM (inactive) | > 10 µM (inactive) | 43.1 µM (inactive) | > 100 µM (inactive) | 62.1 µM (inactive) | 62.1 µM (inactive) | > 100 µM (inactive) | 52.7 µM (inactive) | > 100 µM (inactive) | 37.2 µM (inactive) | 42.2 µM (inactive) |  | 
2 | CC(C)N1CCOC(c2ccc(O)c(O)c2)C1 (centres undefined) | > 100 µM |  | > 100 µM (inactive) | > 100 µM (inactive) | > 100 µM (inactive) | > 100 µM (inactive) | > 100 µM (inactive) |  | > 100 µM (inactive) | > 100 µM (inactive) | > 100 µM (inactive) | > 100 µM (inactive) | > 100 µM (inactive) | > 100 µM (inactive) | > 100 µM (inactive) | 
3 | CC(C)(C)[C@H]1CO[C@]2(c3ccccc3)[C@@H]3C[C@@H]3C(=O)N12 | > 100 µM | > 100 µM (inactive) | > 100 µM (inactive) | > 100 µM (inactive) | > 100 µM (inactive) | > 100 µM (inactive) | > 100 µM (inactive) | > 100 µM (inactive) | > 100 µM (inactive) | > 100 µM (inactive) | > 100 µM (inactive) | > 100 µM (inactive) | > 100 µM (inactive) | > 10 µM (inactive) | > 100 µM (inactive) | 
4 | NC(=S)N/N=C1/C(=O)N(c2ccc(Cl)cc2Cl)C(=O)C(=O)C1c1nc2ccccc2s1 (centres undefined) | > 100 µM |  | > 100 µM (inactive) | > 100 µM (inactive) | > 100 µM (inactive) | > 100 µM (inactive) | > 100 µM (inactive) | > 100 µM (inactive) | > 100 µM (inactive) | > 100 µM (inactive) | > 100 µM (inactive) | > 100 µM (inactive) | > 100 µM (inactive) |  | > 100 µM (inactive) | 
5 | O=C1NC(=O)C2C1c1[nH]c3ccccc3c1C1CCCC12 (centres undefined) | 1.49 µM | 2.81 µM (inactive) |  | 2.7 µM (inactive) | 4.1 µM (inactive) | > 100 µM (inactive) | 3.79 µM (inactive) | 3.61 µM (inactive) | 0.893 µM (active) | 1.73 µM (inactive) | 6.55 µM (inactive) |  | 5.47 µM (inactive) | 1.86 µM (inactive) | 4.49 µM (inactive) | 4.76 µM (inactive)
6 | C[N+](C)(C)CC(=O)N/N=C(\C(=O)Nc1ccc(Cl)cc1)C1C(=O)N(c2ccccc2)N=C1N (centres undefined) | > 100 µM |  | > 100 µM (inactive) | > 100 µM (inactive) | > 100 µM (inactive) | > 100 µM (inactive) | > 100 µM (inactive) |  | > 100 µM (inactive) | > 100 µM (inactive) | > 100 µM (inactive) | > 100 µM (inactive) | > 100 µM (inactive) | > 100 µM (inactive) | > 100 µM (inactive) | > 100 µM (inactive)
7 | CN(C(=O)C12C3C4C1C1C2C3C41I)C(C)(C)C (centres undefined) | 63.1 µM | > 29.4 µM (inactive) | 48 µM (inactive) |  | > 100 µM (inactive) | > 100 µM (inactive) | > 96.6 µM (inactive) | > 51.5 µM (inactive) | > 63.1 µM (inactive) | > 100 µM (inactive) | > 67.1 µM (inactive) | > 88.5 µM (inactive) | > 83 µM (inactive) |  | > 100 µM (inactive) | 53.8 µM (inactive)
8 | Cc1nc(N)sc1C(=O)/C=C/c1ccc([N+](=O)[O-])cc1 | > 100 µM |  | > 100 µM (inactive) | > 100 µM (inactive) | > 100 µM (inactive) | > 100 µM (inactive) | > 100 µM (inactive) |  | > 100 µM (inactive) |  | > 100 µM (inactive) | > 100 µM (inactive) | > 100 µM (inactive) | > 100 µM (inactive) | > 100 µM (inactive) | > 100 µM (inactive)
9 | Nc1ccc2ncc(NCc3ccc(F)cc3)nc2c1 | > 100 µM | 70 µM (inactive) | 83.2 µM (inactive) | 34.4 µM (inactive) | > 100 µM (inactive) | > 100 µM (inactive) | > 100 µM (inactive) | 40.9 µM (inactive) | 48.1 µM (inactive) | > 100 µM (inactive) | 16.4 µM (inactive) | > 100 µM (inactive) | 54.2 µM (inactive) | > 100 µM (inactive) | 85.9 µM (inactive) | 
10 | CCOC(=O)C1(C(=O)OCC)C(C(C)(C)C)=C(C)c2ccccc21 | 13.7 µM | 39.1 µM (inactive) | 10.1 µM (inactive) | 13.5 µM (inactive) | 12.5 µM (inactive) | 14.4 µM (inactive) | 10.2 µM (inactive) | 14.5 µM (inactive) | 9.59 µM (inactive) | 16.1 µM (inactive) | 15.4 µM (inactive) | 12.2 µM (inactive) | 12.9 µM (inactive) | 13.1 µM (inactive) | 24.2 µM (inactive) | 
11 | C=C1CC(CC(=O)C(C)CC2CC(=C)C(=O)O2)OC1=O (centres undefined) | 18.1 µM | 3.3 µM (inactive) |  | 18.7 µM (inactive) | 15.8 µM (inactive) | 65.9 µM (inactive) | 18.8 µM (inactive) |  | 33.3 µM (inactive) | 15.8 µM (inactive) | > 100 µM (inactive) | 16.4 µM (inactive) | 15.8 µM (inactive) | 6.3 µM (inactive) | > 100 µM (inactive) | 46.5 µM (inactive)
12 | CCOC(=O)c1c2ccc(/C=C/C(=O)OC)ccc-2c(C(=O)OCC)c1N | > 100 µM |  | > 100 µM (inactive) | > 100 µM (inactive) | 1.62 µM (inactive) | > 100 µM (inactive) | > 100 µM (inactive) | > 100 µM (inactive) | > 100 µM (inactive) | > 100 µM (inactive) | > 100 µM (inactive) | > 100 µM (inactive) | > 100 µM (inactive) | > 100 µM (inactive) | > 100 µM (inactive) | 6.52 µM (inactive)
13 | CN(C)CC1CCC(CN(C)C)C1=NO (centres undefined) | > 100 µM | 29 µM (inactive) | > 100 µM (inactive) | > 100 µM (inactive) | > 100 µM (inactive) | > 100 µM (inactive) |  |  | > 100 µM (inactive) | > 100 µM (inactive) | > 100 µM (inactive) | > 100 µM (inactive) | > 100 µM (inactive) | > 100 µM (inactive) |  | 
14 | NC(=S)N/N=C/C(=C/Nc1ccccc1)[N+](=O)[O-] | > 100 µM |  | > 100 µM (inactive) | > 100 µM (inactive) | > 100 µM (inactive) | > 100 µM (inactive) | > 100 µM (inactive) | 53 µM (inactive) |  | > 100 µM (inactive) |  | > 100 µM (inactive) | > 100 µM (inactive) | > 100 µM (inactive) | > 100 µM (inactive) | 
15 | O=C1C[C@H]2CCCN2[C@@H](c2ccccc2)C1 | > 100 µM |  | > 100 µM (inactive) | > 100 µM (inactive) | > 100 µM (inactive) | > 100 µM (inactive) | > 100 µM (inactive) | > 100 µM (inactive) | > 100 µM (inactive) | > 100 µM (inactive) | > 100 µM (inactive) | > 100 µM (inactive) | > 100 µM (inactive) | > 100 µM (inactive) | > 100 µM (inactive) | > 100 µM (inactive)
16 | CC(C)NCCCC(C)Nc1ccnc2ccc3nn(C)nc3c12 (centres undefined) |  | 40.1 µM (inactive) | > 100 µM (inactive) |  |  | 75.7 µM (inactive) | > 100 µM (inactive) | 31.8 µM (inactive) | 38.5 µM (inactive) | 38.8 µM (inactive) | 33.7 µM (inactive) | 74.5 µM (inactive) | > 100 µM (inactive) | 41.9 µM (inactive) | > 100 µM (inactive) | > 100 µM (inactive)
17 | O=C(Nc1cc(Cl)cc(Cl)c1)/C(Cc1nc2ccccc2nc1O)=N/NC(=O)c1ccncc1 | > 100 µM |  |  |  |  | 67 µM (inactive) |  |  | > 100 µM (inactive) | > 100 µM (inactive) | > 100 µM (inactive) | > 100 µM (inactive) | > 100 µM (inactive) | > 100 µM (inactive) | > 100 µM (inactive) | > 100 µM (inactive)
18 | O=C(/C=C/c1ccc(Cl)cc1)c1ccc(Cl)c(Cl)c1 | 26 µM |  | 18.8 µM (inactive) | 15.5 µM (inactive) | 17.3 µM (inactive) | > 10 µM (inactive) | 9.4 µM (inactive) | 14 µM (inactive) | 18.1 µM (inactive) | 28 µM (inactive) | 28.5 µM (inactive) | 29.6 µM (inactive) | 23.7 µM (inactive) | 16.2 µM (inactive) | 26.4 µM (inactive) | 34.4 µM (inactive)
19 | CCCCCCCC(=O)OCC1OC(n2cc(F)c(=O)[nH]c2=O)C(NC(=O)OCc2ccccc2)C(O)C1O (centres undefined) | > 100 µM | 31.8 µM (inactive) | 26.2 µM (inactive) | > 100 µM (inactive) | > 100 µM (inactive) |  | > 100 µM (inactive) |  | 1.55 µM (inactive) | > 100 µM (inactive) | > 100 µM (inactive) | > 100 µM (inactive) | 32.1 µM (inactive) | 26.5 µM (inactive) | > 100 µM (inactive) | > 100 µM (inactive)
20 | COc1cc2c(cn1)[nH]c1ccccc12 | > 100 µM | > 100 µM (inactive) | 61.2 µM (inactive) |  | 67.5 µM (inactive) | > 100 µM (inactive) | > 100 µM (inactive) | > 100 µM (inactive) | 47.4 µM (inactive) | > 100 µM (inactive) | > 100 µM (inactive) | 85.1 µM (inactive) | 53 µM (inactive) | > 100 µM (inactive) | > 100 µM (inactive) | 

From ChEMBL document CHEMBL1201862, “PubChem BioAssay data set” (2004)
